≈ marks a conversion by molar mass, not a printed value. Like-named read-outs stand apart in the source and are kept apart here.
Experiments:
[1] = system: Staphylococcus aureus X1.1; assay: MIC, standard agar-dilution assay, S. aureus X1.1; type: cell-based
Method: (§1) The MIC's in Table II were determined by standard agar-dilution assays. The MIC's in Table III were obtained using conventional broth-dilution microtiter tests.

[2] = system: Staphylococcus aureus V41; assay: MIC, standard agar-dilution assay, S. aureus V41; type: cell-based; settings: Staphylococcus aureus, V41
Method: as §1

[3] = system: Pseudomonas aeruginosa X239; assay: MIC, standard agar-dilution assay, P. aeruginosa X239; type: cell-based
Method: as §1

[4] = system: Haemophilus influenzae 76; assay: MIC, standard agar-dilution assay, H. influenzae 76; type: cell-based
Method: as §1

[5] = system: Staphylococcus aureus S13E; assay: MIC, standard agar-dilution assay, S. aureus S13E; type: cell-based
Method: as §1

[6] = system: Streptococcus pneumoniae Park I; assay: MIC, standard agar-dilution assay, S. pneumoniae Park I; type: cell-based; settings: Streptococcus pneumoniae
Method: as §1

[7] = system: Streptococcus Group D X66; assay: MIC, standard agar-dilution assay, Streptococcus Group D X66; type: cell-based
Method: as §1

[8] = system: Klebsiella pneumoniae X68; assay: MIC, standard agar-dilution assay, K. pneumoniae X68; type: cell-based
Method: as §1

[9] = system: Staphylococcus aureus X400; assay: MIC, standard agar-dilution assay, S. aureus X400; type: cell-based
Method: as §1

[10] = system: Staphylococcus epidermidis 222; assay: MIC, standard agar-dilution assay, S. epidermidis 222; type: cell-based
Method: as §1

[11] = system: Streptococcus Group D 2041; assay: MIC, standard agar-dilution assay, Streptococcus Group D 2041; type: cell-based; settings: GROUPD2041
Method: as §1

[12] = system: Haemophilus influenzae C.L.; assay: MIC, standard agar-dilution assay, H. influenzae C.L.; type: cell-based
Method: as §1

Escherichia coli EC14 = assay: MIC, standard agar-dilution assay, E. coli EC14; type: cell-based
Method: as §1

[13] = system: Staphylococcus epidermidis EPI1; assay: MIC, standard agar-dilution assay, S. epidermidis EPI1; type: cell-based
Method: as §1

[14] = system: Streptococcus pyogenes C203; assay: MIC, standard agar-dilution assay, S. pyogenes C203; type: cell-based; settings: Streptococcus pyogenes, C203
Method: as §1

[15] = system: Streptococcus pyogenes C203; assay: Protection of mice experimentally infected with Streptococcus pyogenes C203; type: in vivo; settings: Streptococcus pyogenes, doses given 1 and 4 hours postinfection, read-out: ED50
Method: The formula 1 compounds have shown in vivo antimicrobial activity against experimentally-induced infections in laboratory animals. When two doses of test compound were administered to mice experimentally infected with Streptococcus pyogenes C203, the activity observed was measured as an ED50 value [effective dose in mg/kg to protect 50% of the test animals: see Warren Wick, et al., J. Bacteriol. 81, 233-235 (1961)].
^a mg/kg × 2; doses given 1 and 4 hours postinfection

[16] = agar-dilution, ampicillin-resistant strain, read-out: MIC
[17] = agar-dilution, ampicillin-sensitive strain, read-out: MIC

| Compound | MIC [1] [µg/mL] | MIC [2] [µg/mL] | MIC ([3]; agar-dilution, read-out: MIC) [µg/mL] | MIC [4, 16] [µg/mL] | MIC [5] [µg/mL] | MIC [6] [µg/mL] | MIC [7] [µg/mL] | MIC ([8]; agar-dilution, read-out: MIC) [µg/mL] | MIC [9] [µg/mL] | MIC [10] [µg/mL] | MIC [11] [µg/mL] | MIC [12, 17] [µg/mL] | MIC (Escherichia coli EC14; agar-dilution, read-out: MIC) [µg/mL] | MIC [13] [µg/mL] | MIC [14] [µg/mL] | MIC ([11]; agar-dilution, read-out: MIC) [µg/mL] | other results |
| --- | --- | --- | --- | --- | --- | --- | --- | --- | --- | --- | --- | --- | --- | --- | --- | --- | --- |
| CCC1OC(=O)CC(O)C(C)C(OC2OC(C)C(O)C(N(C)C)C2O)C(CCOc2ccccc2)CC(C)C(=O)C=CC(C)=CC1COC1OC(C)/C(=N\OC)C(OC)C1OC (stereo not drawn) [Compound 6, 4"-O-Methoxyimino-20-DH-20-O-phenyl-desmycosin] | 2 (≈ 2.28 µM) | 2 (≈ 2.28 µM) | > 128 | > 128 | 2 (≈ 2.28 µM) | 1 (≈ 1.14 µM) | 4 (≈ 4.56 µM) | > 128 | 2 (≈ 2.28 µM) | 2 (≈ 2.28 µM) | 8 (≈ 9.12 µM) | > 128 | > 128 | 2 (≈ 2.28 µM) | 4 (≈ 4.56 µM) |  |  |
| CCC1OC(=O)CC(O)C(C)C(OC2OC(C)C(O)C(N(C)C)C2O)C(CCOc2ccccc2)CC(C)C(=O)C=CC(C)=CC1COC1OC(C)/C(=N/OC)C(OC)C1OC (stereo not drawn) [Compound 7, 4"-O-Methoxyimino-20-DH-20-O-phenyl-desmycosin] | 1 (≈ 1.14 µM) | 1 (≈ 1.14 µM) | > 128 | > 128 | 1 (≈ 1.14 µM) | 0.5 (≈ 0.57 µM) |  | > 128 | 1 (≈ 1.14 µM) | 1 (≈ 1.14 µM) |  | > 128 | > 128 | 1 (≈ 1.14 µM) |  | 4 (≈ 4.56 µM) | MIC ([7]; agar-dilution, read-out: MIC): 2 µg/mL (≈ 2.28 µM); MIC ([14]; agar-dilution, read-out: MIC): 2 µg/mL (≈ 2.28 µM) |
| CCC1OC(=O)CC(O)C(C)C(OC2OC(C)C(O)C(N(C)C)C2O)C(CCOc2ccccc2)CC(C)C(=O)C=CC(C)=CC1COC1OC(C)C(OS(=O)(=O)Cc2ccccc2)C(OC)C1OC (stereo not drawn) [Compound 17, 4"-O-Benzylsulfonyl-20-DH-20-O-phenyl-desmycosin] | 4 (≈ 3.98 µM) | 4 (≈ 3.98 µM) |  |  | 4 (≈ 3.98 µM) | 2 (≈ 1.99 µM) | 32 (≈ 31.9 µM) |  | 4 (≈ 3.98 µM) | 2 (≈ 1.99 µM) |  |  |  | 4 (≈ 3.98 µM) | 4 (≈ 3.98 µM) | 128 (≈ 127 µM) | MIC [3]: > 128 µg/mL; MIC [4]: > 128 µg/mL; MIC [8]: > 128 µg/mL; MIC [12]: > 128 µg/mL; MIC (Escherichia coli EC14): > 128 µg/mL |
| CCC1OC(=O)CC(O)C(C)C(OC2OC(C)C(O)C(N(C)C)C2O)C(CCOc2ccccc2)CC(C)C(=O)C=CC(C)=CC1COC1OC(C)C(I)C(OC)C1OC (stereo not drawn) [Compound 19, 4"-Deoxy-4"-iodo-20-DH-20-O-phenyl-desmycosin] | 8 (≈ 8.33 µM) | 8 (≈ 8.33 µM) | > 128 | > 128 | 8 (≈ 8.33 µM) | 8 (≈ 8.33 µM) | 8 (≈ 8.33 µM) | > 128 | 8 (≈ 8.33 µM) | 8 (≈ 8.33 µM) | 8 (≈ 8.33 µM) | > 128 | > 128 | 8 (≈ 8.33 µM) | 8 (≈ 8.33 µM) |  |  |
| CCC1OC(=O)CC(O)C(C)C(OC2OC(C)C(OC(C)=O)C(N(C)C)C2OC(C)=O)C(CCOc2ccccc2)CC(C)C(=O)C=CC(C)=CC1COC1OC(C)C(N)C(OC)C1OC (stereo not drawn) [Compound 20, 2',4'-Di-O-acetyl-4"-amino-4"-deoxy-20-DH-20-O-phenyldesmycosin] | 0.25 (≈ 0.268 µM) | 0.25 (≈ 0.268 µM) | > 128 |  | 0.5 (≈ 0.536 µM) | 1 (≈ 1.07 µM) | 4 (≈ 4.29 µM) | > 128 | 0.5 (≈ 0.536 µM) | 0.25 (≈ 0.268 µM) | 8 (≈ 8.57 µM) |  | > 128 | 0.5 (≈ 0.536 µM) | 0.25 (≈ 0.268 µM) |  | MIC [4]: 16 µg/mL (≈ 17.1 µM); MIC [12]: 16 µg/mL (≈ 17.1 µM) |
| CCC1OC(=O)CC(O)C(C)C(OC2OC(C)C(OC(C)=O)C(N(C)C)C2OC(C)=O)C(CCOc2ccccc2)CC(C)C(=O)C=CC(C)=CC1COC1OC(C)C([n+]2ccccc2)C(OC)C1OC (stereo not drawn) [Compound 22, 2',4'-Di-O-acetyl-4"-deoxy-20-DH-20-O-phenyl-4"-pyridinium-desmycosin] | 2 | 4 | > 128 |  | 4 | 2 | 16 | > 128 | 4 | 4 | 16 |  | > 128 | 2 | 4 |  | MIC [4]: 32 µg/mL; MIC [12]: 64 µg/mL |
| CCC1OC(=O)CC(O)C(C)C(OC2OC(C)C(O)C(N(C)C)C2O)C(CCOc2ccccc2)CC(C)C(=O)C=CC(C)=CC1COC1OC(C)C(NC(C)=O)C(OC)C1OC (stereo not drawn) [Compound 37, 4"-Acetylamino-4"-deoxy-20-DH-20-O-phenyl-desmycosin] | 8 (≈ 8.98 µM) | 4 (≈ 4.49 µM) | > 128 | > 128 | 4 (≈ 4.49 µM) | 4 (≈ 4.49 µM) | 64 (≈ 71.8 µM) | > 128 | 4 (≈ 4.49 µM) | 8 (≈ 8.98 µM) |  | > 128 | > 128 | 8 (≈ 8.98 µM) |  | 128 (≈ 144 µM) | MIC ([14]; agar-dilution, read-out: MIC): 2 µg/mL (≈ 2.24 µM) |
| CCC1OC(=O)CC(O)C(C)C(OC2OC(C)C(OC(C)=O)C(N(C)C)C2OC(C)=O)C(CCOc2ccccc2)CC(C)C(=O)C=CC(C)=CC1COC1OC(C)C(OS(=O)(=O)C(F)(F)F)C(OC)C1OC (stereo not drawn) [Compound 40, 2',4'-Di-O-acetyl-20-DH-20-O-phenyl-4"-O-(trifluoromethanesulfonyl)-desmycosin] | 2 (≈ 1.88 µM) | 2 (≈ 1.88 µM) | > 128 | > 128 | 2 (≈ 1.88 µM) | 8 (≈ 7.5 µM) |  | > 128 | 2 (≈ 1.88 µM) | 2 (≈ 1.88 µM) |  | > 128 | > 128 | 2 (≈ 1.88 µM) | 2 (≈ 1.88 µM) | > 128 | MIC ([7]; agar-dilution, read-out: MIC): > 128 µg/mL |
| CCC1OC(=O)CC(O)C(C)C(OC2OC(C)C(O)C(N(C)C)C2O)C(CCOc2ccccc2)CC(C)C(=O)C=CC(C)=CC1COC1OC(C)C(OCCOC)C(OC)C1OC (stereo not drawn) [Compound 44, 20-DH-4"-(2-Methoxyethoxy)-20-O-phenyl-desmycosin] | 2 (≈ 2.2 µM) | 2 (≈ 2.2 µM) | > 128 | > 128 | 2 (≈ 2.2 µM) | 4 (≈ 4.4 µM) | 8 (≈ 8.81 µM) | > 128 | 2 (≈ 2.2 µM) | 2 (≈ 2.2 µM) | 32 (≈ 35.2 µM) | > 128 | > 128 | 2 (≈ 2.2 µM) | 4 (≈ 4.4 µM) |  |  |
| CCC1OC(=O)CC(O)C(C)C(OC2OC(C)C(O)C(N(C)C)C2O)C(CCOc2ccccc2)CC(C)C(=O)C=CC(C)=CC1COC1OC(C)C(n2cccc2)C(OC)C1OC (stereo not drawn) [Compound 46, 4"-Deoxy-20-DH-20-O-phenyl-4"-pyrrol-1-yl-desmycosin] | 8 (≈ 8.9 µM) | 8 (≈ 8.9 µM) | > 128 | > 128 | 8 (≈ 8.9 µM) | 2 (≈ 2.22 µM) | 32 (≈ 35.6 µM) |  | 8 (≈ 8.9 µM) | 4 (≈ 4.45 µM) | 64 (≈ 71.2 µM) | > 128 | > 128 | 8 (≈ 8.9 µM) | 16 (≈ 17.8 µM) |  |  |
| CCCN(CCC)C1C(C)OC(OCC2C=C(C)C=CC(=O)C(C)CC(CCOc3ccccc3)C(OC3OC(C)C(O)C(N(C)C)C3O)C(C)C(O)CC(=O)OC2CC)C(OC)C1OC (stereo not drawn) [Compound 48, 4"-Deoxy-20-DH-20-O-phenyl-4"-[di-(n-propyl)amino]desmycosin] | 16 (≈ 17.1 µM) | 16 (≈ 17.1 µM) | > 128 | > 128 | 16 (≈ 17.1 µM) | 4 (≈ 4.29 µM) | 16 (≈ 17.1 µM) | > 128 | 16 (≈ 17.1 µM) | 16 (≈ 17.1 µM) | 16 (≈ 17.1 µM) | > 128 | > 128 | 16 (≈ 17.1 µM) | 8 (≈ 8.57 µM) |  |  |
| CCC1OC(=O)CC(O)C(C)C(OC2OC(C)C(O)C(N(C)C)C2O)C(CCOc2ccccc2)CC(C)C(=O)C=CC(C)=CC1COC1OC(C)C(OC)C(O)C1OC (stereo not drawn) [Compound 50, 4"-O-Methyl-20-DH-20-O-phenyl-lactenocin] | 0.5 (≈ 0.588 µM) | 0.5 (≈ 0.588 µM) | > 128 |  | 0.5 (≈ 0.588 µM) | 8 (≈ 9.41 µM) | 16 (≈ 18.8 µM) | > 128 | 0.5 (≈ 0.588 µM) | 0.25 (≈ 0.294 µM) | 32 (≈ 37.6 µM) | 128 (≈ 151 µM) | > 128 | 0.5 (≈ 0.588 µM) | 4 (≈ 4.71 µM) |  | ED50 ([15]; C203, oral): 75.3 mg/kg; ED50 ([15]; C203, sc, subcutaneous): > 10 mg/kg |
| CCC1OC(=O)CC(O)C(C)C(OC2OC(C)C(O)C(N(C)C)C2O)C(CCOc2ccccc2)CC(C)C(=O)C=CC(C)=CC1COC1OC(C)C=C(OC)C1OC (stereo not drawn) [Compound 54, 3",4"-Anhydro-20-DH-20-O-phenyl-desmycosin] | 1 (≈ 1.2 µM) | 1 (≈ 1.2 µM) | > 128 | 128 (≈ 154 µM) | 1 (≈ 1.2 µM) | 4 (≈ 4.81 µM) | 8 (≈ 9.61 µM) | > 128 | 0.5 (≈ 0.601 µM) | 0.25 (≈ 0.3 µM) | 8 (≈ 9.61 µM) | 128 (≈ 154 µM) | > 128 | 1 (≈ 1.2 µM) | 4 (≈ 4.81 µM) |  |  |

Source: patent US4920103A, “Modifications of mycinose and 3-O-demethylmycinose in tylosin-type macrolides” (Eli Lilly and Company, priority 1986, dated 1990)
